Numbered stars: 1 amine (or outer) side, 2 acyl side, 3 side chain; on linkers, the order of the positions; unused ones are H or OH. Bridge positions count the residues as written; N and C are the ends. Square brackets hold non-standard residues; d marks the D form. Peptide text beside a SMILES is read from it. * marks the point of attachment. ξ: configuration not given here. Phe(3-CF3) = N[C@@H](Cc1cccc(C(F)(F)F)c1)C(=O)O; Phe(4-COOH) = N[C@@H](Cc1ccc(C(=O)O)cc1)C(=O)O; d(γGlu) = O=C(O)[C@@H](CCC(=O)[*:2])N[*:1]; Bip = N[C@@H](Cc1ccc(-c2ccccc2)cc1)C(=O)O; NH(CH2)14COOH = O=C(O)CCCCCCCCCCCCCCN*; Phe(3-Me) = Cc1cccc(C[C@H](N)C(=O)O)c1; βAsp = O=C(O)[C@H](CC(=O)[*:2])N[*:1]; NH(CH2)12COOH = O=C(O)CCCCCCCCCCCCN*; Val(3-OH) = CC(C)(O)[C@H](N)C(=O)O; Cha = N[C@@H](CC1CCCCC1)C(=O)O; Cit = NC(=O)NCCC[C@H](N)C(=O)O; Thr(3ξ) = CC(O)[C@H](N)C(=O)O; Carboxymethyl = O=C(O)C*; Orn = NCCC[C@H](N)C(=O)O; Aun = NCCCCCCCCCCC(=O)O; Dab = NCC[C@H](N)C(=O)O; Dap = NC[C@H](N)C(=O)O; AEEA = NCCOCCOCC(=O)O

For the assay, the target named is T1, PD-1/PD-L1 interaction (PE-labeled human PD-L1-Ig binding to Jurkat cell line over-expressing human PD-1) (Homo sapiens, UniProt Q15116).
T1 construct: expressed in transfected cells; host or cells: Jurkat
T1 sequence (Q15116 25-288): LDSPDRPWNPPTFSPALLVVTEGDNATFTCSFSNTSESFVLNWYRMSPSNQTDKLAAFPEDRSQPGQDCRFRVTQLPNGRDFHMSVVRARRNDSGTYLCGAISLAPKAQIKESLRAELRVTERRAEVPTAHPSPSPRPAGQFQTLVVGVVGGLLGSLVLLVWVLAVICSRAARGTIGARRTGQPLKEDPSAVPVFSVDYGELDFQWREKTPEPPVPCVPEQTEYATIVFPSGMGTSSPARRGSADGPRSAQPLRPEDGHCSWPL
As to the kind of experiment: Jurkat-PD-1 Cell Binding High-Content Screening Assay (CBA). It counts as cell-based. The note with it: Jurkat cell line over-expressing human PD-1; PE-labeled PD-L1-Ig 20 nM final; read-out: Jurkat hPD1-PDL1 IC50. The method in brief:
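Jurkat cells over-expressing human PD-1 (8×10^3 per well, DMEM/10% FCS) preincubated with compound 2 h at 37° C, then PE-labeled human PD-L1-Ig (20 nM final) added for 1 h. Cells fixed with paraformaldehyde, Hoechst-stained, and bound fluorescence quantified by high-content imaging.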
As usually defined, the IC50 is the concentration at which inhibition is half-maximal. As for `Cc1cccc(C[C@@H]2NC(=O)[C@H](CC(=O)O)NC(=O)[C@H](Cc3ccc(OCC(=O)O)cc3)NC(=O)[C@H](C)NC(=O)CSC[C@@H](C(=O)N[C@@H](CCN)C(=O)NCCOCCOCC(=O)NCCOCCOCC(=O)NCCCCCCCCCCCCCCC(=O)O)NC(=O)[C@H](CO)NC(=O)[C@H](C(C)(C)O)NC(=O)[C@H](CC3CCCCC3)NC(=O)[C@H](CCN)NC(=O)[C@@H](CC(C)C)NC(=O)[C@H](CCCN)NC(=O)[C@H](Cc3ccc(C(=O)O)cc3)NC(=O)[C@H](Cc3ccc(-c4ccccc4)cc3)NC(=O)[C@H](Cc3ccc(C(=O)O)cc3)NC2=O)c1` [Compound 3853] ({CH2CO}-AY(Carboxymethyl)D[Phe(3-Me)][Phe(4-COOH)][Bip][Phe(4-COOH)][Orn][dL][Dab][Cha][Val(3-OH)]SC[Dab][AEEA][AEEA]-{NH(CH2)14COOH}; thioether N-14), the half-inhibitory concentration (IC50) was determined as 104 nM.

Consider `CC(=O)NCCCC[C@@H]1NC(=O)[C@H](C(C)C)NC(=O)[C@H](CC2CCCCC2)NC(=O)[C@H](CCN)NC(=O)[C@@H](CC(C)C)NC(=O)[C@H](CCCN)NC(=O)[C@H](Cc2ccc(O)cc2)NC(=O)[C@H](Cc2ccc(-c3ccccc3)cc2)NC(=O)[C@H](C(C)C)NC(=O)[C@H](Cc2c[nH]c3ccccc23)NC(=O)[C@H](CC(=O)O)NC(=O)[C@H](Cc2ccc(OCC(=O)O)cc2)NC(=O)[C@H](CCCNC(=N)N)NC(=O)CSC[C@@H](C(=O)NCCOCCOCC(=O)N[C@H](CCC(=O)NCCCCCCCCCCC(=O)O)C(=O)O)NC1=O` [Compound 3401] ({CH2CO}-RY(Carboxymethyl)DWV[Bip]Y[Orn][dL][Dab][Cha]VK(Ac)C[AEEA][d(γGlu)][Aun]-OH; thioether N-14), for which the half-maximal inhibitory concentration (IC50) came out at 6.9 nM.

Regarding `Cc1cccc(C[C@@H]2NC(=O)[C@H](CC(=O)O)NC(=O)[C@H](Cc3ccc(OCC(=O)O)cc3)NC(=O)[C@H](Cc3ccc(OCC(=O)O)cc3)NC(=O)CSC[C@@H](C(=O)N[C@@H](CCCN)C(=O)NCCCCCCCCCCC(=O)O)NC(=O)[C@H](CO)NC(=O)[C@H](C(C)C)NC(=O)[C@H](CC(C)C)NC(=O)[C@H](CCN)NC(=O)[C@@H](CC(C)C)NC(=O)[C@H](CCCN)NC(=O)[C@H](C(C)C)NC(=O)[C@H](Cc3ccc(-c4ccccc4)cc3)NC(=O)[C@@H](CC(C)C)NC2=O)c1` [Compound 1141] ({CH2CO}-Y(Carboxymethyl)Y(Carboxymethyl)D[Phe(3-Me)][dL][Bip]V[Orn][dL][Dab]LVSC[Orn][Aun]-OH; thioether N-14), the concentration for half-maximal inhibition (IC50) amounted to 41 nM.

Regarding `Cc1cccc(C[C@@H]2NC(=O)[C@H](CC(=O)O)NC(=O)[C@H](Cc3ccc(OCC(=O)O)cc3)NC(=O)[C@H](CN)NC(=O)CSC[C@@H](C(=O)N[C@@H](CCN)C(=O)NCCOCCOCC(=O)NCCCCCCCCCCC(=O)O)NC(=O)[C@H](CCCNC(=N)N)NC(=O)[C@H](C(C)C)NC(=O)[C@H](CC3CCCCC3)NC(=O)[C@H](CCN)NC(=O)[C@@H](CC(C)C)NC(=O)[C@H](CCCN)NC(=O)[C@H](CCC(=O)O)NC(=O)[C@H](Cc3ccc(-c4ccccc4)cc3)NC(=O)[C@H](C(C)C)NC2=O)c1` [Compound 2662] ({CH2CO}-[Dap]Y(Carboxymethyl)D[Phe(3-Me)]V[Bip]E[Orn][dL][Dab][Cha]VRC[Dab][AEEA][Aun]-OH; thioether N-14), the half-maximal inhibitory concentration (IC50) is 11 nM.

Regarding `CC(C)C[C@H]1NC(=O)[C@H](CCCN)NC(=O)[C@H](C(C)C)NC(=O)[C@H](Cc2ccc(-c3ccccc3)cc2)NC(=O)[C@H](C(C)C)NC(=O)[C@H](Cc2c[nH]c3ccccc23)NC(=O)[C@H](CC(=O)O)NC(=O)[C@H](Cc2ccc(OCC(=O)O)cc2)NC(=O)[C@H](CN)NC(=O)CSC[C@@H](C(=O)N[C@@H](CCN)C(=O)NCCCCCCCCCCC(=O)O)NC(=O)[C@H](Cc2cnc[nH]2)NC(=O)[C@H](C(C)O)NC(=O)[C@H](CC2CCCCC2)NC(=O)[C@H](CCN)NC1=O` (stereo partly drawn) [Compound 3652] ({CH2CO}-[Dap]Y(Carboxymethyl)DWV[Bip]V[Orn][dL][Dab][Cha][Thr(3ξ)]HC[Dab][Aun]-OH; thioether N-14), the IC50 was determined as 22.1 nM.

For the compound `Cc1cccc(C[C@@H]2NC(=O)[C@H](CC(=O)O)NC(=O)[C@H](Cc3ccc(OCC(=O)O)cc3)NC(=O)[C@H](CCCNC(=N)N)NC(=O)CSC[C@@H](C(=O)N[C@@H](CCN)C(=O)NCCCCCCCCCCC(=O)O)NC(=O)[C@H](C(C)O)NC(=O)[C@H](C(C)C)NC(=O)[C@H](CC3CCCCC3)NC(=O)[C@H](CCN)NC(=O)[C@@H](CC(C)C)NC(=O)[C@H](CCCNC(N)=O)NC(=O)[C@H](Cc3ccc(OCC(=O)O)cc3)NC(=O)[C@H](Cc3ccc(-c4ccccc4)cc3)NC(=O)[C@H](Cc3ccc(O)cc3)NC2=O)c1` (stereo partly drawn) [Compound 3371] ({CH2CO}-RY(Carboxymethyl)D[Phe(3-Me)]Y[Bip]Y(Carboxymethyl)[Cit][dL][Dab][Cha]V[Thr(3ξ)]C[Dab][Aun]-OH; thioether N-14), the IC50 is 9.4 nM.

For `CC(C)C[C@H]1NC(=O)[C@H](CCCN)NC(=O)[C@H](C(C)C)NC(=O)[C@H](Cc2ccc(-c3ccccc3)cc2)NC(=O)[C@H](C(C)C)NC(=O)[C@H](Cc2c[nH]c3ccccc23)NC(=O)[C@H](CC(=O)O)NC(=O)[C@H](Cc2ccc(C(=O)O)cc2)NC(=O)[C@H](Cc2ccc(OCC(=O)O)cc2)NC(=O)CSC[C@@H](C(=O)NCCOCCOCC(=O)N[C@@H](CCCCN)C(=O)NCCCCCCCCCCC(=O)O)NC(=O)[C@H](CCCCN)NC(=O)[C@H](C(C)C)NC(=O)[C@H](CC2CCCCC2)NC(=O)[C@H](CCN)NC1=O` [Compound 2593] ({CH2CO}-Y(Carboxymethyl)[Phe(4-COOH)]DWV[Bip]V[Orn][dL][Dab][Cha]VKC[AEEA]K[Aun]-OH; thioether N-14), the IC50 was 18.4 nM.

Regarding `Cc1cccc(C[C@@H]2NC(=O)[C@H](CC(=O)O)NC(=O)[C@H](Cc3ccc(O)cc3)NC(=O)[C@H](CC(N)=O)NC(=O)CSC[C@@H](C(=O)N[C@@H](CCN)C(=O)NCCCCCCCCCCC(=O)O)NC(=O)[C@H](CCC(N)=O)NC(=O)[C@H](C(C)C)NC(=O)[C@H](CC(C)C)NC(=O)[C@H](CCN)NC(=O)[C@@H](CC(C)C)NC(=O)[C@H](CCCN)NC(=O)[C@H](CCCNC(N)=O)NC(=O)[C@H](Cc3ccc(-c4ccccc4)cc3)NC(=O)[C@H](C(C)C)NC2=O)c1` [Compound 2789] ({CH2CO}-NYD[Phe(3-Me)]V[Bip][Cit][Orn][dL][Dab]LVQC[Dab][Aun]-OH; thioether N-14), the 50% inhibitory concentration (IC50) was 23.8 nM.

Take `CC(C)C[C@H]1NC(=O)[C@H](CCCN)NC(=O)[C@H](C(C)C)NC(=O)[C@H](Cc2ccc(-c3ccccc3)cc2)NC(=O)[C@H](C(C)C)NC(=O)[C@H](Cc2c[nH]c3ccccc23)NC(=O)[C@H](CC(=O)O)NC(=O)[C@H](Cc2ccc(OCC(=O)O)cc2)NC(=O)[C@H](Cc2ccc(OCC(=O)O)cc2)NC(=O)CSC[C@@H](C(=O)NCCOCCOCC(=O)N[C@@H](CCCCN)C(=O)NCCCCCCCCCCC(=O)O)NC(=O)[C@H](CN)NC(=O)[C@H](C(C)C)NC(=O)[C@H](CC2CCCCC2)NC(=O)[C@H](CCN)NC1=O` [Compound 2600] ({CH2CO}-Y(Carboxymethyl)Y(Carboxymethyl)DWV[Bip]V[Orn][dL][Dab][Cha]V[Dap]C[AEEA]K[Aun]-OH; thioether N-14): the IC50 was determined as 10.3 nM.

For `Cc1cccc(C[C@@H]2NC(=O)[C@H](CC(=O)O)NC(=O)[C@H](Cc3c[nH]cn3)NC(=O)[C@H](CCCNC(=N)N)NC(=O)CSC[C@@H](C(=O)NCCOCCOCC(=O)N[C@@H](CCN)C(=O)NCCCCCCCCCCC(=O)O)NC(=O)[C@H](CO)NC(=O)[C@H](C(C)C)NC(=O)[C@H](CC3CCCCC3)NC(=O)[C@H](CCN)NC(=O)[C@@H](CC(C)C)NC(=O)[C@H](CCCN)NC(=O)[C@H](C(C)C)NC(=O)[C@H](Cc3ccc(-c4ccccc4)cc3)NC(=O)[C@H](C(C)C)NC2=O)c1` [Compound 3295] ({CH2CO}-RHD[Phe(3-Me)]V[Bip]V[Orn][dL][Dab][Cha]VSC[AEEA][Dab][Aun]-OH; thioether N-14), the IC50 was 12.5 nM.

Take `CC(C)C[C@H]1NC(=O)[C@H](CCCN)NC(=O)[C@H](Cc2ccc(C(=O)O)cc2)NC(=O)[C@H](Cc2ccc(-c3ccccc3)cc2)NC(=O)[C@H](Cc2ccc(C(=O)O)cc2)NC(=O)[C@H](Cc2cccc(C(F)(F)F)c2)NC(=O)[C@H](CC(=O)O)NC(=O)[C@H](Cc2ccc(OCC(=O)O)cc2)NC(=O)[C@H](CCN)NC(=O)CSC[C@@H](C(=O)N[C@@H](CCN)C(=O)NCCOCCOCC(=O)N[C@@H](CC(=O)NCCOCCOCC(=O)NCCCCCCCCCCCCC(=O)O)C(=O)O)NC(=O)[C@H](CO)NC(=O)[C@H](C(C)(C)O)NC(=O)[C@H](CC2CCCCC2)NC(=O)[C@H](CCN)NC1=O` [Compound 2943] ({CH2CO}-[Dab]Y(Carboxymethyl)D[Phe(3-CF3)][Phe(4-COOH)][Bip][Phe(4-COOH)][Orn][dL][Dab][Cha][Val(3-OH)]SC[Dab][AEEA][βAsp][AEEA]-{NH(CH2)12COOH}; thioether N-14): the IC50 was 75.8 nM.

On to `Cc1cccc(C[C@@H]2NC(=O)[C@H](CC(=O)O)NC(=O)[C@H](Cc3ccc(OCC(=O)O)cc3)NC(=O)[C@H](CN)NC(=O)CSC[C@@H](C(=O)N[C@@H](CCN)C(=O)NCCOCCOCC(=O)NCCCCCCCCCCC(=O)O)NC(=O)[C@H](CCC(=O)O)NC(=O)[C@H](C(C)C)NC(=O)[C@H](Cc3cccc(C)c3)NC(=O)[C@H](CCN)NC(=O)[C@@H](CC(C)C)NC(=O)[C@H](CCCN)NC(=O)[C@H](Cc3ccc(OCC(=O)O)cc3)NC(=O)[C@H](Cc3ccc(-c4ccccc4)cc3)NC(=O)[C@H](Cc3ccc(C(=O)O)cc3)NC2=O)c1` [Compound 1271] ({CH2CO}-[Dap]Y(Carboxymethyl)D[Phe(3-Me)][Phe(4-COOH)][Bip]Y(Carboxymethyl)[Orn][dL][Dab][Phe(3-Me)]VEC[Dab][AEEA][Aun]-OH; thioether N-14), for which the IC50 worked out at 19.9 nM.
